This is an account of results in PMC9132415, “Identification of 1H-pyrazolo[3,4-b]pyridine derivatives as novel and potent TBK1 inhibitors: design, synthesis, biological evaluation, and molecular docking study” (Journal of Enzyme Inhibition and Medicinal Chemistry, 2022).

In this assay the target is T1, TBK1 (Homo sapiens, UniProt Q9UHD2).
T1 sequence (Q9UHD2 1-729): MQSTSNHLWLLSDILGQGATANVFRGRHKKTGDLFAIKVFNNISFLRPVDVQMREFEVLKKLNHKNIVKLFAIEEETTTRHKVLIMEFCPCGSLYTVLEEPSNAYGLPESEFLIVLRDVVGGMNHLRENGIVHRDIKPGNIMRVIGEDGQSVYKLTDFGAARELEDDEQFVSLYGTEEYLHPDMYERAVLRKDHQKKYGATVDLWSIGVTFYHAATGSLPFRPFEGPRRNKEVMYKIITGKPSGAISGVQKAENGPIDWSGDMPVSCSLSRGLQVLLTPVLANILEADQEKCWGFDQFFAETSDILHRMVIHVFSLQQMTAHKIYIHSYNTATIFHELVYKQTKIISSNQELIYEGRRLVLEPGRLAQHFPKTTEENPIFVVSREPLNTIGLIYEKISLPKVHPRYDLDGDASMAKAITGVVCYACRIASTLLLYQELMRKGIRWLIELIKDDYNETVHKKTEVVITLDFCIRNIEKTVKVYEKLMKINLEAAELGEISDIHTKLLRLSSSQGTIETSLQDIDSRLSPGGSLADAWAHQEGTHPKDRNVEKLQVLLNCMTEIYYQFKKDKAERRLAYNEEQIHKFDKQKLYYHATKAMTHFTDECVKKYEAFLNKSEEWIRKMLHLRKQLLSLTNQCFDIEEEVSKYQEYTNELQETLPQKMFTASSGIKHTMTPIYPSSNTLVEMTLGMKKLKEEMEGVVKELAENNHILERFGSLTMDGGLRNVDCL
Briefly: FRET-based Z'-LYTE TBK1 enzymatic assay. Format: biochemical. More on the design: purchased Thermo Scientific A31513. The conditions noted are these: 100 µM ATP.

As to `Cc1nc2c(F)cc(-c3n[nH]c4ncc(-c5cccc(S(N)(=O)=O)c5)cc34)cc2n1C(C)C` [Compound 15y], the inhibition at 0.0001 µM (compound at 0.1 nM, read-out: TBK1 inhibition (%) 0.1 nM) amounted to 33.6%. Moreover, the inhibition at 0.001 µM (compound at 1 nM, read-out: TBK1 inhibition (%) 1 nM) came out at 88.8%. Besides, the inhibition at 0.01 µM (compound at 10 nM, read-out: TBK1 inhibition (%) 10 nM) was found to be 93.8%. Besides, the inhibition at 0.1 µM (compound at 100 nM, read-out: TBK1 inhibition (%) 100 nM) was determined as 102%. In addition, for the setting “compound at 1 μM, read-out: TBK1 inhibition (%) 1 μM”, the inhibition at 1 µM stood at 53.9%. The compound also had an IC50 (mean of two separate experiments) of 0.2 nM.
